Blank lines part the entries; values can stand above or below the molecule they belong to.
What was measured:
human meprin α = biological target: T1, human meprin α (Homo sapiens, UniProt Q16819); type: biochemical; conditions: for Ki: Ki(app) Meprin α, geometric mean of three independent experiments with standard deviation factor; for SF: selectivity factor (Ki(app) meprin β/Ki(app) meprin α): meprin α over meprin β; for reduction of the meprin α selectivity by factor: compared to 16a
T1 sequence (Q16819 66-746): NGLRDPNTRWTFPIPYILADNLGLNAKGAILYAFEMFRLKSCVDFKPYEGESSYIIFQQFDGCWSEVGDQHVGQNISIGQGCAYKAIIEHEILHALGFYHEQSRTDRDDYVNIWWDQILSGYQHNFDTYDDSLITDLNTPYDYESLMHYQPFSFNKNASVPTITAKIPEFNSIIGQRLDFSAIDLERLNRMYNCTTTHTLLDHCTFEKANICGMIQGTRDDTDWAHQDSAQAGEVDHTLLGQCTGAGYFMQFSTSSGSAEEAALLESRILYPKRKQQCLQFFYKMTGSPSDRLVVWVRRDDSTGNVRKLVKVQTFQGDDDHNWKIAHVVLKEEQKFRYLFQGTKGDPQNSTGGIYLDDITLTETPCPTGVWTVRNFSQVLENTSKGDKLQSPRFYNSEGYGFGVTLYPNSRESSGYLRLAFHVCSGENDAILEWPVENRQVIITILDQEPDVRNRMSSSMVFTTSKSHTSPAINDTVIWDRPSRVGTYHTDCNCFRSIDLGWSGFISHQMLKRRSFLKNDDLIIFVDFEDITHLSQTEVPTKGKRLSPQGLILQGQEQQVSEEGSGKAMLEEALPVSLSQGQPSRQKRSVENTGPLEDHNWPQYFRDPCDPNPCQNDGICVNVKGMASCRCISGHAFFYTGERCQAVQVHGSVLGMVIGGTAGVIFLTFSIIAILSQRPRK

human meprin β = biological target: T2, human meprin β (Homo sapiens, UniProt Q16820); type: biochemical; conditions: Ki(app) Meprin β, geometric mean of three independent experiments with standard deviation factor
T2 sequence (Q16820 62-701): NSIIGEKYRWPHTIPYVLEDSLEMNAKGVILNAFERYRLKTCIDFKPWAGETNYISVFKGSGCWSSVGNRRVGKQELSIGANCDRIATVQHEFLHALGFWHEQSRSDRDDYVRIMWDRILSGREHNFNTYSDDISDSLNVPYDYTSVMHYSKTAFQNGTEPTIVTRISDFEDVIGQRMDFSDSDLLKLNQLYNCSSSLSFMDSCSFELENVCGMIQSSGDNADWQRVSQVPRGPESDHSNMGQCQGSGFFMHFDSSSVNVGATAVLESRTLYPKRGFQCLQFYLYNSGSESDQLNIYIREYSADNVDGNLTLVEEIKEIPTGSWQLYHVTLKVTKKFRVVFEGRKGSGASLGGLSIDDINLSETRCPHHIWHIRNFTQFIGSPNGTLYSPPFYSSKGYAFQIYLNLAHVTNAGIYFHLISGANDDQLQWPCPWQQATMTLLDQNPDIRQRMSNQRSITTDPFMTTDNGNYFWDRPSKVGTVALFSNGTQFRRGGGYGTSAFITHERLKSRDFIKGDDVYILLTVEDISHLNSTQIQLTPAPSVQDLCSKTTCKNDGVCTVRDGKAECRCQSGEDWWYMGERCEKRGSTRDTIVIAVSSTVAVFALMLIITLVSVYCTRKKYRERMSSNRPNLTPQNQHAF

Structure (SMILES): COc1ccc(-c2n[nH]c(-c3ccccc3)c2CC(=O)NO)cc1 [14e, 2-[3-(4-Methoxyphenyl)-5-phenyl-1H-pyrazol-4-yl]ethanehydroxamic acid]
Ki (human meprin α): 1.3 nM
SF: selectivity factor (Ki(app) meprin β/Ki(app) meprin α) (human meprin α): 48

Structure (SMILES): O=C(Cc1c(-c2ccccc2)nn(-c2ccccc2)c1-c1ccccc1)NO [21b, 2-(1,3,5-Triphenylpyrazol-4-yl)ethanehydroxamic acid]
Ki (human meprin α): 4 nM
SF: selectivity factor (Ki(app) meprin β/Ki(app) meprin α) (human meprin α): 167
Ki (human meprin β): 667 nM

Structure (SMILES): O=C(Cc1c(Cc2ccccc2)n[nH]c1-c1ccccc1)NO [14b, 2-(3-Benzyl-5-phenyl-1H-pyrazol-4-yl)ethanehydroxamic acid]
SF: selectivity factor (Ki(app) meprin β/Ki(app) meprin α) (human meprin α): 25

Structure (SMILES): N#Cc1cccc(-c2n[nH]c(-c3ccccc3)c2CC(=O)NO)c1 [14h, 2-[3-(3-Cyanophenyl)-5-phenyl-1H-pyrazol-4-yl]ethanehydroxamic acid]
Ki (human meprin α): 4.8 nM
SF: selectivity factor (Ki(app) meprin β/Ki(app) meprin α) (human meprin α): 67

Structure (SMILES): O=C(Cc1c(-c2ccccc2)nn(Cc2ccccc2)c1-c1ccccc1)NO [21e, 2-(1-Benzyl-3,5-diphenyl-pyrazol-4-yl)ethanehydroxamic acid]
Ki (human meprin α): 1 nM
SF: selectivity factor (Ki(app) meprin β/Ki(app) meprin α) (human meprin α): 291
Ki (human meprin β): 291 nM

Structure (SMILES): Cc1n[nH]c(-c2ccccc2)c1CC(=O)NO [14a, 2-(3-Methyl-5-phenyl-1H-pyrazol-4-yl)ethanehydroxamic acid]
SF: selectivity factor (Ki(app) meprin β/Ki(app) meprin α) (human meprin α): 7

Structure (SMILES): O=C(Cc1c(-c2cc(O)no2)n[nH]c1-c1ccccc1)NO [14n, 2-[3-(3-Hydroxyisoxazol-5-yl)-5-phenyl-1H-pyrazol-4-yl]ethanehydroxamic acid]
SF: selectivity factor (Ki(app) meprin β/Ki(app) meprin α) (human meprin α): 1

Structure (SMILES): O=C(Cc1c(-c2ccc(Cl)c(O)c2F)n[nH]c1-c1ccc(Cl)c(O)c1F)NO [16d, 2-[3,5-Bis(4-chloro-2-fluoro-3-hydroxyphenyl)-1H-pyrazol-4-yl]ethanehydroxamic acid]
Ki (human meprin α): 4.2 nM
SF: selectivity factor (Ki(app) meprin β/Ki(app) meprin α) (human meprin α): 3

Structure (SMILES): O=C(Cc1c(-c2c[nH]nc2C(F)(F)F)n[nH]c1-c1ccccc1)NO [14o, 2-[5-Phenyl-3-[3-(trifluoromethyl)-1H-pyrazol-4-yl]-1H-pyrazol-4-yl]ethanehydroxamic acid]
Ki (human meprin α): 1.6 nM
SF: selectivity factor (Ki(app) meprin β/Ki(app) meprin α) (human meprin α): 55

Structure (SMILES): N#Cc1ccc(-c2n[nH]c(-c3ccccc3)c2CC(=O)NO)cc1 [14i, 2-[3-(4-Cyanophenyl)-5-phenyl-1H-pyrazol-4-yl]ethanehydroxamic acid]
Ki (human meprin α): 13.6 nM
SF: selectivity factor (Ki(app) meprin β/Ki(app) meprin α) (human meprin α): 71

Structure (SMILES): O=C(Cc1c(-c2ccc(Cl)c(O)c2F)n[nH]c1-c1ccccc1)NO [14l, 2-[3-(4-Chloro-2-fluoro-3-hydroxyphenyl)-5-phenyl-1H-pyrazol-4-yl]ethanehydroxamic acid]
Ki (human meprin α): 2.2 nM
SF: selectivity factor (Ki(app) meprin β/Ki(app) meprin α) (human meprin α): 31

Second part, the molecule after the results:

Ki (human meprin α): 7.5 nM
SF: selectivity factor (Ki(app) meprin β/Ki(app) meprin α) (human meprin α): 6
Structure (SMILES): O=C(Cc1c(-c2cccc(C(=O)O)c2)n[nH]c1-c1ccccc1)NO [14j, 3-[4-[2-(Hydroxyamino)-2-oxo-ethyl]-5-phenyl-1H-pyrazol-3-yl]benzoic acid]

Ki (human meprin α): 11.6 nM
SF: selectivity factor (Ki(app) meprin β/Ki(app) meprin α) (human meprin α): 8
Structure (SMILES): O=C(Cc1c(-c2ccccc2)[nH]nc1[C@H]1CC[C@H](C(=O)O)CC1)NO [14s, Trans-4-[4-[2-(hydroxyamino)-2-oxo-ethyl]-5-phenyl-1H-pyrazol-3-yl]cyclohexanecarboxylic acid]

Ki (human meprin α): 0.3 nM
SF: selectivity factor (Ki(app) meprin β/Ki(app) meprin α) (human meprin α): 127
Ki (human meprin β): 32.6 nM
Structure (SMILES): O=C(Cc1c([C@H]2CCCC[C@H]2C(=O)O)n[nH]c1-c1ccccc1)NO (relative stereo) [14q, Cis-2-[4-[2-(hydroxyamino)-2-oxo-ethyl]-5-phenyl-1H-pyrazol-3-yl]cyclohexanecarboxylic acid]

SF: selectivity factor (Ki(app) meprin β/Ki(app) meprin α) (human meprin α): 1
Ki (human meprin β): 14.5 nM
Structure (SMILES): O=C(Cc1c(-c2cccc(C(=O)O)c2)n[nH]c1-c1cccc(C(=O)O)c1)NO [16b, 3-[3-(3-Carboxyphenyl)-4-[2-(hydroxyamino)-2-oxo-ethyl]-1H-pyrazol-5-yl]benzoic acid]

SF: selectivity factor (Ki(app) meprin β/Ki(app) meprin α) (human meprin α): 1
Structure (SMILES): O=C(Cc1c(-c2cccc(C(=O)O)c2)[nH]nc1[C@H]1CC[C@H](C(=O)O)CC1)NO [16l, 3-[3-(Trans-4-Carboxycyclohexyl)-4-[2-(hydroxyamino)-2-oxo-ethyl]-1H-pyrazol-5-yl]benzoic acid]

Ki (human meprin α): 3.1 nM
reduction of the meprin α selectivity by factor (human meprin α): 10–20
SF: selectivity factor (Ki(app) meprin β/Ki(app) meprin α) (human meprin α): 15
Structure (SMILES): O=C(Cc1c(-c2ccc3c(c2)OCO3)n[nH]c1-c1cccc(C(=O)O)c1)NO [16e, 3-[3-(1,3-Benzodioxol-5-yl)-4-[2-(hydroxyamino)-2-oxo-ethyl]-1H-pyrazol-5-yl)benzoic acid]

Ki (human meprin α): 17.2 nM
SF: selectivity factor (Ki(app) meprin β/Ki(app) meprin α) (human meprin α): 7
Structure (SMILES): O=C(Cc1c(-c2ccc(C(=O)O)cc2)n[nH]c1-c1ccccc1)NO [14k, 4-[4-[2-(Hydroxyamino)-2-oxo-ethyl]-5-phenyl-1H-pyrazol-3-yl]benzoic acid]

Ki (human meprin α): 1.4 nM
SF: selectivity factor (Ki(app) meprin β/Ki(app) meprin α) (human meprin α): 39
Structure (SMILES): O=C(Cc1c(C2CCCC(C(=O)O)C2)n[nH]c1-c1ccccc1)NO (centres unmarked) [14r, 3-[4-[2-(Hydroxyamino)-2-oxo-ethyl]-5-phenyl-1H-pyrazol-3-yl]cyclohexanecarboxylic acid]

Ki (human meprin α): 5.6 nM
SF: selectivity factor (Ki(app) meprin β/Ki(app) meprin α) (human meprin α): 53
Structure (SMILES): O=C(Cc1c(C2CCCC2)n[nH]c1-c1ccccc1)NO [14c, 2-(3-Cyclopentyl-5-phenyl-1H-pyrazol-4-yl)ethanehydroxamic acid]

SF: selectivity factor (Ki(app) meprin β/Ki(app) meprin α) (human meprin α): 2
Structure (SMILES): O=C(Cc1c(-c2ccc(C(=O)O)cc2)n[nH]c1-c1ccc(C(=O)O)cc1)NO [16c, 4-[3-(4-Carboxyphenyl)-4-[2-(hydroxyamino)-2-oxo-ethyl]-1H-pyrazol-5-yl]benzoic acid]

Ki (human meprin α): 5.1 nM
SF: selectivity factor (Ki(app) meprin β/Ki(app) meprin α) (human meprin α): 1
Structure (SMILES): O=C(Cc1c(-c2cccc(C(=O)O)c2)n[nH]c1-c1ccc(Cl)c(O)c1F)NO [16i, 3-[5-(4-Chloro-2-fluoro-3-hydroxy-phenyl)-4-[2-(hydroxyamino)-2-oxo-ethyl]-1H-pyrazol-3-yl]benzoic acid]

Ki (human meprin α): 10.5 nM
reduction of the meprin α selectivity by factor (human meprin α): 10–20
SF: selectivity factor (Ki(app) meprin β/Ki(app) meprin α) (human meprin α): 9
Structure (SMILES): O=C(Cc1c(-c2ccc3c(c2)OCO3)n[nH]c1-c1ccc(C(=O)O)cc1)NO [16f, 4-[3-(1,3-Benzodioxol-5-yl)-4-[2-(hydroxyamino)-2-oxo-ethyl]-1H-pyrazol-5-yl)benzoic acid]

SF: selectivity factor (Ki(app) meprin β/Ki(app) meprin α) (human meprin α): 4
Structure (SMILES): O=C(Cc1c(-c2ccccc2)[nH]nc1[C@H]1CC[C@@H](C(=O)O)CC1)NO [14t, Cis-4-[4-[2-(hydroxyamino)-2-oxo-ethyl]-5-phenyl-1H-pyrazol-3-yl]cyclohexanecarboxylic acid]
